Our source for the inhibition in vivo and Inhibition values is US4879295A, “N-tetrazolyl thiazolecarboxyamide derivatives and their use” (Sawai Pharmaceutical Co., Ltd., priority 1986, dated 1989).

The subject of assay [1] is passive cutaneous anaphylaxis (PCA). Nature of the assay: Anti-passive cutaneous anaphylaxis (PCA) activity in rats, 48-hours PCA (TEST EXAMPLE 1). It counts as in vivo, rat (Wistar strain male). The settings on record: Rattus norvegicus. On the procedure: Anti-passive cutaneous anaphylaxis (PCA) activity in rats
(§1) Wistar strain male rats (6 weeks old) were purchased from Shizuoka Experimental Animal Agricultural Cooperative (Japan), habituated to a breeding environment for 1 week before using for the experiment.
(2) Preparation of antiserum
Preparation of antiserum was carried out according to the method described in J. Immunol. 106, 1002-1011 (1971).
(§2) Thus, Ascaris suum extract was dinitrophenylated (DNP-As) and infused subcutaneously together with dead Bordetella pertussis at four sites on the foot-pad. After 5 days, the rats were boostered with DNP-As (1 mg) at the dosal muscle. After 3 days, bloods samples were collected and serum was separated which was used as anti DNP-As antiserum. The titer of the antiserum was measured by rats 48-hours PCA and found to be 1:200.
Rats were sensitized with 35 times dilution of anti DNP-As antiserum administered at two sites in the pre-clipped right dosal skin. After 48 hours, DNP-As (500 μg in 0.5% Evans blue-physiological saline (1 ml) was administered into caudal vein to elicit the reaction. Then, 30 minutes later, the animals were decapitated, the dosal skin was peeled, two sensitized areas as well as one control area were cut off and analyzed for Evans blue exudation which was used as an indicative of the reaction according to the method disclosed in Microbiol. Immunol. 22, 89-101 (1978). Thus, cut skins were treated with 1N-NaOH (1 ml) and incubated at 37° C. for 16 hours to dissolve the skin tissue. A mixed solution (9 ml) of 0.6N-phosphoric acid-acetone (5:13) was added and the mixture was centrifuged (300 r.p.m) for 15 minutes. The supernatant was assayed for absorption at 620 nm and the exudation of Evans blue was determined. Test compounds (I) were administered either into caudal vein 5 minutes before the elicitation of the reaction, or perorally as a suspension in 0.5% 1 hour before the elicitation.

Assay [2] has the same test system. The assay is described as follows: Anti-passive cutaneous anaphylaxis (PCA) activity in rats, P.O. only (TEST EXAMPLE 2). It counts as in vivo, rat (Wistar strain male). The note with it: 1 hour before elicitation. Here is the method:
as §1, §2
Rats were sensitized with 35 times dilution of anti DNP-As antiserum administered at two sites in the pre-clipped right dosal skin. […] The supernatant was assayed for absorption at 620 nm and the exudation of Evans blue was determined. […]

The mark [3] stands for this setting: iv, I.V. (caudal vein), 5 minutes before elicitation.
Where [4] appears, read: po, P.O., 1 hour before elicitation.

In assay [1] (iv, I.V. (caudal vein), 0.5 mg/kg, 5 minutes before elicitation), `O=C(Nc1nnn[nH]1)c1csc(-c2ccccc2O)n1` [Compound I-1] yielded an inhibition in vivo at 0.5 mg/kg of 67%. The molecule further gave an inhibition in vivo at 1.5 mg/kg in assay [1] (iv, I.V. (caudal vein), 1.5 mg/kg, 5 minutes before elicitation) of 98%. The inhibition in vivo at 2 mg/kg in assay [1] (setting [3]) is 99%. Regarding `COc1ccccc1-c1nc(C(=O)Nc2nnn[nH]2)cs1` [Compound I-2], at 2 mg/kg the inhibition in vivo in assay [1] (setting [3]) was 99%. In addition, the inhibition in vivo at 50 mg/kg in assay [1] (setting [4]) was determined as 60%. As for `COc1cccc(-c2nc(C(=O)Nc3nnn[nH]3)cs2)c1` [Compound I-3, 2-(3-methoxyphenyl)-N-(1H-tetrazole-5-yl)-4-thiazolecarboxamide], the inhibition in vivo at 2 mg/kg in assay [1] (setting [3]) amounted to 99%. The same molecule came in with an inhibition in vivo at 30 mg/kg in assay [1] (setting [4]) of 77%.

`COc1ccc(-c2nc(C(=O)Nc3nnn[nH]3)cs2)cc1` [Compound I-4]: the inhibition in vivo at 2 mg/kg in assay [1] (setting [3]) was found to be 98%. Regarding `Cc1ccc(-c2nc(C(=O)Nc3nnn[nH]3)cs2)cc1` [Compound I-7], in assay [1] (setting [4]), the inhibition in vivo at 30 mg/kg was found to be 76%. `O=C(Nc1nnn[nH]1)c1csc(-c2cccc(C(F)(F)F)c2)n1` [Compound I-17, 2-(3-trifluoromethylphenyl)-N-(1H-tetrazole-5-yl)-4-thiazolecarboxamide]: in assay [1] (setting [3]), the inhibition in vivo at 2 mg/kg stood at 98%.

In assay [1] (setting [3]), `O=C(Nc1nnn[nH]1)c1csc(-c2cc(Cl)ccc2O)n1` [Compound I-19, 2-(5-chloro-2-hydroxyphenyl)-N-(1H-tetrazole-5-yl)-4-thiazolecarboxamide] gave an inhibition in vivo at 2 mg/kg of 97%.

Molecule `COc1ccc(O)c(-c2nc(C(=O)Nc3nnn[nH]3)cs2)c1` [Compound I-20, 2-(2-hydroxy-5-methoxyphenyl)-N-(1H-tetrazole-5-yl)-4-thiazolecarboxamide] yielded an inhibition in vivo at 2 mg/kg in assay [1] (setting [3]) of 93%. Still for that read-out and setting: with `O=C(Nc1nnn[nH]1)c1csc(-c2cc([N+](=O)[O-])ccc2O)n1` [Compound I-21, 2-(2-hydroxy-5-nitrophenyl)-N-(1H-tetrazole-5-yl)-4-thiazolecarboxamide] the figure was 98%; with `Cc1ccc(O)c(-c2nc(C(=O)Nc3nnn[nH]3)cs2)c1` [Compound I-22, 2-(2-hydroxy-5-methylphenyl)-N-(1H-tetrazole-5-yl)-4-thiazolecarboxamide], 81%. The same measure, in the same setting: the same measure for `O=C(Nc1nnn[nH]1)c1csc(-c2ccccc2OCc2ccccc2)n1` [Compound I-23, 2-(2-benzyloxyphenyl)-N-(1H-tetrazole-5-yl)-4-thiazolecarboxamide]: 98%. In the case of `Cc1ccc(-c2nc(C(=O)Nc3nnn[nH]3)c(C)s2)cc1` [Compound I-27, 2-(4-methylphenyl)-5-methyl-N-(1H-tetrazole-5-yl)-4-thiazolecarboxamide], the inhibition in vivo at 25 mg/kg in assay [1] (po, P.O., 25 mg/kg, 1 hour before elicitation) stood at 91%.

As for `Cc1ccc(-c2nc(C(=O)Nc3nnn[nH]3)c(C)s2)s1` [Compound I-42, 2-(5-Methyl-2-thienyl)-5-methyl-N-(1H-tetrazole-5-yl)-4-thiazolecarboxamide], the Inhibition in assay [2] (25 mg/kg) is 73%.

In assay [1] (iv, I.V. (caudal vein), 5 mg/kg, 5 minutes before elicitation), `O=C(O)c1cc(=O)c2c(OCC(O)COc3cccc4oc(C(=O)O)cc(=O)c34)cccc2o1` [DSCG, disodium cromoglicate, reference compound] came in with an inhibition in vivo at 5 mg/kg of 92%. The molecule `COc1ccc(/C=C/C(=O)Nc2ccccc2C(=O)O)cc1OC` [Tranilast, tranilast, reference compound] had an inhibition in vivo at 50 mg/kg in assay [1] (setting [4]) of 0%. This molecule yielded an Inhibition in assay [2] (50 mg/kg) of 0%.
